In patent publication US6914045B2, “Glycopeptide antibiotics” (Wyeth Holdings Corporation, priority 2001, dated 2005):
Converted amounts (≈) assume the structure as drawn.

Legend:
Experiment in all cases: in vitro antibacterial evaluation, MIC by broth dilution
Format in all cases: cell-based
Staphylococcus sp. = conditions: broth dilution, 18 hours at 35° C.
In short: (§1)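 Inoculum 5×10^5 CFU/mL; concentrations 64 to 0.06 μg/mL; MIC defined as lowest inhibitory level. Conducted by broth dilution under NCCLS guidelines.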

Streptococcus sp. = conditions: broth dilution, 18 hours at 35° C.
In short: as §1

Enterococcus sp. = conditions: broth dilution, 18 hours at 35° C.
In short: as §1

Escherichia coli = conditions: 18 hours at 35° C.
In short: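 Step 1: dilute antibiotic across 64-0.06 μg/mL in Muller-Hinton II […]. Step 2: inoculate at 5×10^5 CFU/mL.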

CC(C)CCC(=O)OC1C(OC2C(CO)OC(Oc3ccc(CC4NC(=O)C(C(C)c5ccccc5)NC(=O)CNC(=O)C(CO)NC(=O)C(C(O)C5CNC(=N)N5C5OC(CO)C(O)C(O)C5O)NC(=O)C(C(O)C5CNC(=N)N5)NC4=O)cc3)C(O)C2O)OC(CO)C(O)C1O (stereo not drawn) [Example 270a, Cyclo[glycyl-β-methylphenylalanyl-O-[4-O-[2-O-(4-methylventanovl)hexopyranosyl]-hexopyranosyl]tyrosyl-3-(2-iminoimidazolidin-4-yl)seryl-3-(3-hexopyranosyl-2-iminoimidazolidin-4-yl)serylseryl]]
MIC Coagulase Negative Staphylococcus (GC 4547) (Staphylococcus sp.): 2 µg/mL (≈ 1.44 µM) | MIC Coagulase Negative Staphylococcus (GC 4548) (Staphylococcus sp.): 2 µg/mL (≈ 1.44 µM) | MIC Coagulase Negative Staphylococcus (GC 4549) (Staphylococcus sp.): 2 µg/mL (≈ 1.44 µM) | MIC Coagulase Negative Staphylococcus (GC 4551) (Staphylococcus sp.): 4 µg/mL (≈ 2.87 µM) | MIC Staphylococcus aureus (ATCC 29213) (Staphylococcus sp.): 4 µg/mL (≈ 2.87 µM) | MIC Staphylococcus aureus (GC 1131) (Staphylococcus sp.): 4 µg/mL (≈ 2.87 µM) | MIC Staphylococcus aureus (GC 4541) (Staphylococcus sp.): 4 µg/mL (≈ 2.87 µM) | MIC Staphylococcus aureus (GC 4542) (Staphylococcus sp.): 4 µg/mL (≈ 2.87 µM) | MIC Staphylococcus aureus (GC 4544) (Staphylococcus sp.): 4 µg/mL (≈ 2.87 µM) | MIC Staphylococcus aureus (GC 4545) (Staphylococcus sp.): 4 µg/mL (≈ 2.87 µM) | MIC Staphylococcus aureus-SMITH (GC 4543) (Staphylococcus sp.): 4 µg/mL (≈ 2.87 µM) | MIC Staphylococcus haemolyticus (GC 4546) (Staphylococcus sp.): 2 µg/mL (≈ 1.44 µM) | MIC Staphylococcus aureus (ATCC 29213) (Staphylococcus sp.; strain ATCC 29213): 4 µg/mL (≈ 2.87 µM) | MIC Staphylococcus aureus (GC 1131) (Staphylococcus sp.; strain GC 1131): 4 µg/mL (≈ 2.87 µM) | MIC Staphylococcus aureus (GC 4541) (Staphylococcus sp.; strain GC 4541): 4 µg/mL (≈ 2.87 µM) | MIC Staphylococcus aureus (GC 4542) (Staphylococcus sp.; strain GC 4542): 4 µg/mL (≈ 2.87 µM) | MIC Staphylococcus aureus (GC 4544) (Staphylococcus sp.; strain GC 4544): 4 µg/mL (≈ 2.87 µM) | MIC Staphylococcus aureus (GC 4545) (Staphylococcus sp.; strain GC 4545): 4 µg/mL (≈ 2.87 µM) | MIC Staphylococcus haemolyticus (GC 4546) (Staphylococcus sp.; strain GC 4546): 2 µg/mL (≈ 1.44 µM) | MIC Coagulase Negative Staphylococcus (GC 4547) (Staphylococcus sp.; strain GC 4547): 2 µg/mL (≈ 1.44 µM) | MIC Coagulase Negative Staphylococcus (GC 4548) (Staphylococcus sp.; strain GC 4548): 2 µg/mL (≈ 1.44 µM) | MIC Coagulase Negative Staphylococcus (GC 4549) (Staphylococcus sp.; strain GC 4549): 2 µg/mL (≈ 1.44 µM) | MIC Coagulase Negative Staphylococcus (GC 4551) (Staphylococcus sp.; strain GC 4551): 4 µg/mL (≈ 2.87 µM) | MIC Staphylococcus aureus-SMITH (GC 4543) (Staphylococcus sp.; strain SMITH GC 4543): 4 µg/mL (≈ 2.87 µM) | MIC Streptococcus agalactiae (GC 4564) (Streptococcus sp.; strain GC 4564): 1 µg/mL (≈ 0.718 µM) | MIC Streptococcus pyogenes (ID-3187) (Streptococcus sp.; strain ID-3187): 1 µg/mL (≈ 0.718 µM) | MIC Enterococcus avium (GC 4558) (Enterococcus sp.; Enterococcus avium (GC 4558)): 16 µg/mL (≈ 11.5 µM) | MIC Enterococcus faecalis (ATCC 29212) (Enterococcus sp.; Enterococcus faecalis (ATCC 29212)): 16 µg/mL (≈ 11.5 µM) | MIC Enterococcus faecalis (GC 4553) (Enterococcus sp.; Enterococcus faecalis (GC 4553)): 16 µg/mL (≈ 11.5 µM) | MIC Enterococcus faecalis (GC 4554) (Enterococcus sp.; Enterococcus faecalis (GC 4554)): 32 µg/mL (≈ 23 µM) | MIC Enterococcus faecium (GC 2243) (Enterococcus sp.; Enterococcus faecium (GC 2243)): 16 µg/mL (≈ 11.5 µM) | MIC Enterococcus faecium (GC 4556) (Enterococcus sp.; Enterococcus faecium (GC 4556)): 16 µg/mL (≈ 11.5 µM) | MIC Enterococcus faecium (GC 4557) (Enterococcus sp.; Enterococcus faecium (GC 4557)): 4 µg/mL (≈ 2.87 µM) | MIC Enterococcus faecalis (ATCC 29212) (Enterococcus sp.; strain ATCC 29212): 16 µg/mL (≈ 11.5 µM) | MIC Enterococcus faecalis (GC 2242) (Enterococcus sp.; strain GC 2242): 16 µg/mL (≈ 11.5 µM) | MIC Enterococcus faecium (GC 2243) (Enterococcus sp.; strain GC 2243): 16 µg/mL (≈ 11.5 µM) | MIC Enterococcus faecalis (GC 4552) (Enterococcus sp.; strain GC 4552): 16 µg/mL (≈ 11.5 µM) | MIC Enterococcus faecalis (GC 4553) (Enterococcus sp.; strain GC 4553): 16 µg/mL (≈ 11.5 µM) | MIC Enterococcus faecalis (GC 4554) (Enterococcus sp.; strain GC 4554): 32 µg/mL (≈ 23 µM) | MIC Enterococcus faecium (GC 4556) (Enterococcus sp.; strain GC 4556): 16 µg/mL (≈ 11.5 µM) | MIC Enterococcus faecium (GC 4557) (Enterococcus sp.; strain GC 4557): 4 µg/mL (≈ 2.87 µM) | MIC Enterococcus avium (GC 4558) (Enterococcus sp.; strain GC 4558): 16 µg/mL (≈ 11.5 µM) | MIC Escherichia coli (ATCC 25922) (Escherichia coli; Escherichia coli (ATCC 25922)): >64 µg/mL | MIC Escherichia coli (GC 4559) (Escherichia coli; Escherichia coli (GC 4559)): >64 µg/mL | MIC Escherichia coli (GC 4560) (Escherichia coli; Escherichia coli (GC 4560)): 2 µg/mL (≈ 1.44 µM)
